Assay results from article PMC9477487, “Multitarget drugs as potential therapeutic agents for alzheimer’s disease. A new family of 5-substituted indazole derivatives as cholinergic and BACE1 inhibitors” (Journal of Enzyme Inhibition and Medicinal Chemistry, 2022).

Columns and labels:
[1] = biological target: T1, BuChE from human serum (Homo sapiens, UniProt P06276); assay: In vitro BuChE inhibition assay (Ellman); format: biochemical; settings: for IC50: mean ± SEM, 3 experiments, butyrylthiocholine substrate; for inhibition at 10 µM / BuChE percentage of inhibition at 10 µM: 10 µM compound; for inhibition at 10 µM: read-out: BuChE percentage of inhibition at 10 µM
T1 construct: BuChE from human serum (EC 3.1.1.8); purchased Sigma; host or cells: human serum (tissue-derived)
T1 sequence (P06276 29-602): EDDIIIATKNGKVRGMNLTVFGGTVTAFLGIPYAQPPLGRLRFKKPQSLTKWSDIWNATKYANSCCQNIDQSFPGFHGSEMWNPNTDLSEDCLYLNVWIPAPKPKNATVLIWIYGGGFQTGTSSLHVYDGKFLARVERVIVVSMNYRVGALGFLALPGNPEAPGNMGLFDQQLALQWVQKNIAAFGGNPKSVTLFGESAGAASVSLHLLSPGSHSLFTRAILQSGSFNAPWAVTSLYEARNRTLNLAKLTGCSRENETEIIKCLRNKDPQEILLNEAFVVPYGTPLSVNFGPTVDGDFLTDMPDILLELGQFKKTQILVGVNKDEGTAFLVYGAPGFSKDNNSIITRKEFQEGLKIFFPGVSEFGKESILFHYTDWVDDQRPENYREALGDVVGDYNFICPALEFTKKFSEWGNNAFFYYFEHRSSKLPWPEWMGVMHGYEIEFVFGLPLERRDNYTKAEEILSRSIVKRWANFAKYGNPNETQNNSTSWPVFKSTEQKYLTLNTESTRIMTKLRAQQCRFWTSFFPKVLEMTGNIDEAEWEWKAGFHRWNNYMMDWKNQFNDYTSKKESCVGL
Procedure: (§1) AChE from human erythrocytes (EC 3.1.1.7) (min. 500 units/mg protein in buffered aqueous solution) and BuChE from human serum (EC 3.1.1.8) (3 units/mg protein, lyophilised powder) were purchased from Sigma.
(§2) Compounds were evaluated in 100 mM phosphate buffer pH 8.0 at 30 °C, using acetylthiocholine and butyrylthiocholine (0.4 mM) as substrates, respectively. In both cases, 5,5-dithio-bis(2-nitrobenzoic) acid (DTNB, Ellman’s reagent, 0.2 mM) was used and the values of IC50 were calculated by UV spectroscopy from the absorbance changes at 412 nm. Experiments were performed in triplicate.

[2] = Oxygen radical absorbance capacity assay (ORAC-FL); settings: for ORAC (Oxygen Radical Absorbance Capacity): pH 7.4
Procedure: The ORAC-FL method of Ou et al.[37], partially modified by Dávalos et al.[38], was followed, using a FLUOstar Optima (BMG Labtechnologies GmbH, Offenburg, Germany) with 485 excitation and 520 emission filters. 2,2′-Azobis-(amidinopropane) dihydrochloride (AAPH), (±)-6-hydroxy-2,5,7,8-tetramethylchromane-2-carboxylic acid (trolox) and fluorescein (FL) were purchased from Sigma-Aldrich. The reaction was carried out in 75 mM phosphate buffer (pH 7.4) and the final reaction mixture was 200 µL. […] The mixture was pre-incubated for 30 min at 37 °C and then AAPH solution (25 µL, 240 mM) was added rapidly using a multichannel pipette. The microplate was immediately placed in the reader and the fluorescence was recorded every 90 s. for 90 min. The microplate was automatically shaken prior to each reading. Samples were measured at four different concentrations (10^−1 µM). A blank (FL + AAPH in phosphate buffer) instead of the sample solution and four calibration solutions using trolox (10^−1 µM) was also used in each assay. All of the reaction mixtures were prepared in duplicate and at least three independent assays were performed for each sample. Raw data were exported from the Fluostar optima Software to an Excel sheet for further calculations. Antioxidant curves (fluorescence vs. time) were represented and the area under the curve (AUC) is calculated as: AUC =f1/f0+fi/f0+ … +f34/f0+ (f35/f0) where fo = initial fluorescence reading at 0 min and fi = fluorescence reading at time i. The net AUC is obtained by subtracting the AUC of the blank from that of a sample. The relative Trolox equivalent ORAC value is calculated as: Relative ORAC value =[(AUC sample - AUC blank)/(AUCT rolox - AUC blank)](molarity of trolox/molarity of sample)

[3] = biological target: T2, AChE from human erythrocytes (Homo sapiens, UniProt P22303); assay: In vitro AChE inhibition assay (Ellman); format: biochemical; settings: for IC50: mean ± SEM, 3 experiments, acetylthiocholine substrate; for inhibition at 10 µM: 10 µM compound, read-out: AChE percentage of inhibition at 10 µM
T2 construct: AChE from human erythrocytes (EC 3.1.1.7); purchased Sigma; host or cells: human erythrocytes (tissue-derived)
T2 sequence (P22303 32-617 isoform P22303-2 limits assumed): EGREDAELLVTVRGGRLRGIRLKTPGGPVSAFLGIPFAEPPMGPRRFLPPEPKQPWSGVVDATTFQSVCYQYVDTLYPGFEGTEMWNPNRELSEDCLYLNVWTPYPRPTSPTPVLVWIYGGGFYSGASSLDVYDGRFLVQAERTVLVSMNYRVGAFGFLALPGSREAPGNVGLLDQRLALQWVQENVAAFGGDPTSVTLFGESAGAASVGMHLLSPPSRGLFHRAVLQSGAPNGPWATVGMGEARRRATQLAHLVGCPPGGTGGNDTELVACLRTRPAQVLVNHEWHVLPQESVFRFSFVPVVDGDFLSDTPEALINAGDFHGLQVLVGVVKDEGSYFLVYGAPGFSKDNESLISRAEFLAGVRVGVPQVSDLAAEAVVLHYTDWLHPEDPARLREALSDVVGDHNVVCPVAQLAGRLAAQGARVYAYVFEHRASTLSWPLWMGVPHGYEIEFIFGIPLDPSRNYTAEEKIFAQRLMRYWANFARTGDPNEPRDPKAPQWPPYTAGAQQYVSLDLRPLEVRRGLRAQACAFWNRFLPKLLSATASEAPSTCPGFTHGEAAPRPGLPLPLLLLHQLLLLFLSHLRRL
Procedure: as §1, §2

[4] = biological target: T3, BACE1 (Homo sapiens, UniProt P56817); assay: BACE1 enzymatic FRET assay; format: biochemical; settings: for IC50: pH 4.5, mean ± SEM; for inhibition at 10 µM: pH 4.5, 10 µM compound, read-out: BACE1 percentage of inhibition at 10 µM
T3 construct: purchased Invitrogen
T3 sequence (P56817 46-501): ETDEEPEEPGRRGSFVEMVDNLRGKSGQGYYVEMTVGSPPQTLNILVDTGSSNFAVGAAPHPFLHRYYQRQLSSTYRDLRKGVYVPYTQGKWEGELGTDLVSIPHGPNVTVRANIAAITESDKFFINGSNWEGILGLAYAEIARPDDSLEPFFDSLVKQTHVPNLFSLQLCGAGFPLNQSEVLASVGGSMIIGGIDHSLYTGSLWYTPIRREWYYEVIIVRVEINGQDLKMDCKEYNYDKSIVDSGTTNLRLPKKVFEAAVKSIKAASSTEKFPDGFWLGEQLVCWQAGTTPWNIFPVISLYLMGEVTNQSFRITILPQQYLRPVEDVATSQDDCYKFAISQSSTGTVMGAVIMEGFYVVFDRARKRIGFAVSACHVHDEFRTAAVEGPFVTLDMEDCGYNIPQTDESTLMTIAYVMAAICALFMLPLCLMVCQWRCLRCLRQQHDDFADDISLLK
Procedure: The BACE1 ([…]) assay was carried out according to the manufacturer’s described protocol which is available from Invitrogen[36].
Briefly, BACE1 in vitro assays were carried out using fluorescence resonance energy transfer (FRET). An APP-based peptide substrate (rhodamine-EVNLDAEFK-quencher, Km of 20 μM) carrying the Swedish mutation and containing rhodamine as a fluorescence donor and a quencher acceptor at each end was used. The intact substrate is weakly fluorescent and becomes highly fluorescent upon enzymatic cleavage. The assays were conducted in 50 mM sodium acetate buffer, pH 4.5, at a final enzyme concentration of 1 U/mL. Inhibitor screening was performed at 10 μM. The mixture was incubated for 60 min at 25 °C under dark conditions and then stopped with 2.5 M sodium acetate. Fluorescence was measured with a FLUOstar Optima (BMG Labtechnologies GmbH, Offenburg, Germany) microplate reader at 545 nm excitation and 585 nm emission. The assay kit was validated by the manufacturer.

Clc1cccc(COc2nn(Cc3cccc4ccccc34)c3ccc(NCCCN4CCCCC4)cc23)c1Cl [Compound 5]
IC50 [1]: > 10 µM | ORAC (Oxygen Radical Absorbance Capacity) [2]: 0.8 ± 0.1 μmol of Trolox equivalents/μmol of tested compound | IC50 [3]: > 10 µM | IC50 [4]: 2.7 ± 0.1 µM

O=C(Nc1ccc2c(c1)c(OCc1ccccc1)nn2Cc1ccccc1)c1cccc(Cl)c1Cl [Compound 7]
IC50 [1]: > 10 µM | ORAC (Oxygen Radical Absorbance Capacity) [2]: 0 μmol of Trolox equivalents/μmol of tested compound | IC50 [3]: 7.6 ± 0.3 µM | inhibition at 10 µM [4]: 60%

CCN(CC)C(=O)Nc1ccc2c(c1)c(OCc1cccc3ccccc13)nn2Cc1ccccc1 [Compound 8]
IC50 [1]: > 10 µM | Antioxidant properties in relation to Trolox [2]: higher than 60% | ORAC (Oxygen Radical Absorbance Capacity) [2]: 0.9 ± 0.1 μmol of Trolox equivalents/μmol of tested compound | inhibition at 10 µM [3]: 29% | IC50 [3]: > 10 µM | IC50 [4]: 9.1 ± 0.5 µM

CN(C(=O)Nc1ccc2c(c1)c(OCc1cccc3ccccc13)nn2Cc1ccc(Cl)cc1)c1ccccc1 [Compound 9]
IC50 [1]: > 10 µM | Antioxidant properties in relation to Trolox [2]: higher than 60% | ORAC (Oxygen Radical Absorbance Capacity) [2]: 0.6 ± 0.1 μmol of Trolox equivalents/μmol of tested compound | IC50 [3]: > 10 µM | inhibition at 10 µM [4]: 29% | IC50 [4]: > 10 µM

O=C(Nc1ccc2c(c1)c(OCc1cccc3ccccc13)nn2Cc1ccc(Cl)c(Cl)c1)N(c1ccccc1)c1ccccc1 [Compound 10]
IC50 [1]: > 10 µM | ORAC (Oxygen Radical Absorbance Capacity) [2]: 0.2 ± 0.1 μmol of Trolox equivalents/μmol of tested compound | inhibition at 10 µM [3]: 28% | IC50 [3]: > 10 µM | inhibition at 10 µM [4]: 10% | IC50 [4]: > 10 µM

CN1CCN(C(=O)Nc2ccc3c(c2)c(OCc2ccccc2)nn3Cc2cccc(Cl)c2Cl)CC1 [Compound 11]
inhibition at 10 µM [1]: 47% | IC50 [1]: > 10 µM | Antioxidant properties in relation to Trolox [2]: higher than 60% | ORAC (Oxygen Radical Absorbance Capacity) [2]: 1.1 ± 0.1 μmol of Trolox equivalents/μmol of tested compound | IC50 [3]: > 10 µM | IC50 [4]: 2.8 ± 0.5 µM

O=C(Nc1ccc2c(c1)c(OCc1cccc(Cl)c1Cl)nn2Cc1cccc2ccccc12)N1CCCC1 [Compound 12]
IC50 [1]: > 10 µM | ORAC (Oxygen Radical Absorbance Capacity) [2]: 0.5 ± 0.1 μmol of Trolox equivalents/μmol of tested compound | IC50 [3]: > 10 µM | inhibition at 10 µM [4]: 43% | IC50 [4]: > 10 µM

Nc1ccc2c(c1)c(OCc1ccccc1)nn2Cc1ccccc1 [Compound 27, 5-amino-1-benzyl-3-(benzyloxy)indazole]
BuChE percentage of inhibition at 10 µM [1]: very slight inhibition | inhibition at 10 µM [1]: 21% | IC50 [1]: > 10 µM | ORAC (Oxygen Radical Absorbance Capacity) [2]: 0.9 ± 0.1 μmol of Trolox equivalents/μmol of tested compound | IC50 [3]: 8.6 ± 0.5 µM | inhibition at 10 µM [4]: 2% | IC50 [4]: > 10 µM

Nc1ccc2c(c1)c(OCc1ccc3ccccc3c1)nn2Cc1ccc2ccccc2c1 [Compound 28]
BuChE percentage of inhibition at 10 µM [1]: very slight inhibition | inhibition at 10 µM [1]: 24% | IC50 [1]: > 10 µM | ORAC (Oxygen Radical Absorbance Capacity) [2]: 0.3 ± 0.1 μmol of Trolox equivalents/μmol of tested compound | IC50 [3]: 4.1 ± 0.2 µM | IC50 [4]: 8.9 ± 0.5 µM

Nc1ccc2c(c1)c(OCc1ccccc1)nn2Cc1cccc(Cl)c1Cl [Compound 29]
IC50 [1]: > 10 µM | ORAC (Oxygen Radical Absorbance Capacity) [2]: 0.7 ± 0.1 μmol of Trolox equivalents/μmol of tested compound | IC50 [3]: > 10 µM | IC50 [4]: > 10 µM

Nc1ccc2c(c1)c(OCc1cccc(Cl)c1Cl)nn2Cc1cccc2ccccc12 [Compound 30]
IC50 [1]: > 10 µM | ORAC (Oxygen Radical Absorbance Capacity) [2]: 0.8 ± 0.1 μmol of Trolox equivalents/μmol of tested compound | inhibition at 10 µM [3]: 36% | IC50 [3]: > 10 µM | inhibition at 10 µM [4]: 79%

Nc1ccc2c(c1)c(OCc1ccc3ccccc3c1)nn2Cc1ccc(Cl)c(Cl)c1 [Compound 31]
BuChE percentage of inhibition at 10 µM [1]: very slight inhibition | inhibition at 10 µM [1]: 30% | IC50 [1]: > 10 µM | ORAC (Oxygen Radical Absorbance Capacity) [2]: 0.63 ± 0.04 μmol of Trolox equivalents/μmol of tested compound | IC50 [3]: 6 ± 0.5 µM | inhibition at 10 µM [4]: 69%
